Here are results for 17 molecules from US8609592B2, “2-(substituted phenyl)-6-amino-5-alkoxy, thioalkoxy and aminoalkyl-4-pyrimidinecarboxylates and their use as herbicides” (Dow AgroSciences LLC, priority 2007, dated 2013).

Series [1] deals with Wild buckwheat (Polygonum convolvulus). Kind of series: General postemergence herbicidal activity, greenhouse. The series is classed as in vivo. The settings on record: Fallopia convolvulus, post-emergence, 336 h, post-emergent, visual score after 14 days (0 no injury, 100 complete kill), read-out: % Growth Reduction POLCO; for pest or weed control at 140 g/ha: 140 g ai/ha; for pest or weed control at 280 g/ha: 280 g ai/ha. The protocol: (§1) Seeds or nutlets of the desired test plant species were planted in Sun Gro MetroMix® 360 planting mixture, which typically has a pH of 6.0 to 6.8 and an organic matter content of about 30 percent, in plastic pots with a surface area of 64 square centimeters. When required to ensure good germination and healthy plants, a fungicide treatment and/or other chemical or physical treatment was applied. The plants were grown for 7-21 days in a greenhouse with an approximate 15 hour photoperiod which was maintained at about 23-29° C. during the day and 22-28° C. during the night. Nutrients and water were added on a regular basis and supplemental lighting was provided with overhead metal halide 1000-Watt lamps as necessary. The plants were employed for testing when they reached the first or second true leaf stage.
(§2) A weighed amount, determined by the highest rate to be tested, of each test compound was dissolved in 4 mL of a 97:3 v/v (volume/volume) mixture of acetone and dimethyl sulfoxide (DMSO) to obtain concentrated stock solutions. […] The concentrated stock solutions obtained were diluted with 20 mL of an aqueous mixture containing acetone, water, isopropyl alcohol, DMSO, Atplus 411F crop oil concentrate, and Triton X-155 surfactant in a 48.5:39:10:1.5:1.0:0.02 v/v ratio to obtain spray solutions containing the highest application rates. Additional application rates were obtained by serial dilution of 12 mL of the high rate solution into a solution containing 2 mL of 97:3 v/v (volume/volume) mixture of acetone and dimethyl sulfoxide (DMSO) and 10 mL of an aqueous mixture containing acetone, water, isopropyl alcohol, DMSO, Atplus 411F crop oil concentrate, and Triton X-155 surfactant in a 48.5:39:10:1.5:1.0:0.02 v/v ratio to obtain ½×, ¼×, ⅛× and 1/16× rates of the high rate. Compound requirements are based upon a 12 mL application volume at a rate of 187 L/ha. Formulated compounds were applied to the plant material with an overhead Mandel track sprayer equipped with a 8002E nozzles calibrated to deliver 187 L/ha over an application area of 0.503 square meters at a spray height of […] above the average plant canopy height. Control plants were sprayed in the same manner with the solvent blank.
(§3) The treated plants and control plants were placed in a greenhouse as described above and watered by sub-irrigation to prevent wash-off of the test compounds. After 14 days, the condition of the test plants as compared with that of the untreated plants was determined visually and scored on a scale of 0 to 100 percent where 0 corresponds to no injury and 100 corresponds to complete kill.

Series [2] relates to Barnyardgrass (Echinochloa crus-galli). The description is as above. The series is classed as in vivo. The settings on record: post-emergence, 336 h, post-emergent, visual score after 14 days (0 no injury, 100 complete kill), read-out: % Growth Reduction ECHCG; for pest or weed control at 140 g/ha: 140 g ai/ha. The protocol: as §1, §2, §3
The subject of series [3] is Giant foxtail (Setaria faberi). The description is as above. The series is classed as in vivo. Particulars: post-emergence, 336 h, post-emergent, visual score after 14 days (0 no injury, 100 complete kill), read-out: % Growth Reduction SETFA; for pest or weed control at 140 g/ha: 140 g ai/ha; for pest or weed control at 280 g/ha: 280 g ai/ha. As to the method: as §1, §2, §3

Series [4] concerns Velvetleaf (Abutilon theophrasti). Described as above. The settings on record: post-emergence, 336 h, post-emergent, visual score after 14 days (0 no injury, 100 complete kill), read-out: % Growth Reduction ABUTH; for pest or weed control at 140 g/ha: 140 g ai/ha; for pest or weed control at 280 g/ha: 280 g ai/ha. The series is classed as in vivo. As to the method: as §1, §2, §3

In the case of `COc1c(N)nc(-c2ccc(Cl)cc2F)nc1C(=O)O` [Compound 31, 6-Amino-2-(4-chloro-2-fluorophenyl)-5-methoxypyrimidine-4-carboxylic acid], the pest or weed control at 140 g/ha in series [1] is 100%; in series [2], 85%; in series [3], 70%; in series [4], 100%.
Molecule `COc1c(N)nc(-c2ccc(C)cc2F)nc1C(=O)O` [Compound 28, 6-Amino-2-(2-fluoro-4-methylphenyl)-5-methoxypyrimidine-4-carboxylic acid] gave a melting point of 94 to 97 °C.
In the case of `CCOC(=O)c1nc(-c2ccc3c(c2)OCO3)nc(N)c1OC` [Compound 12, 6-Amino-2-benzo[1,3]-dioxol-5-yl-5-methoxypyrimidine-4-carboxylic acid ethyl ester], the pest or weed control at 140 g/ha in series [1] turned out to be 80%; in series [2] it was 85%; in series [3], 90%; in series [4], 50%.
Consider `CCOC(=O)c1nc(-c2cc(C)c(Cl)cc2F)nc(N)c1OC` [Compound 3, 6-Amino-2-(4-chloro-2-fluoro-5-methylphenyl)-5-methoxypyrimidine-4-carboxylic acid ethyl ester], for which the pest or weed control at 280 g/ha in series [1] was determined as 85%; in series [2] (280 g ai/ha), 0%; in series [3] it was 0%; in series [4], 60%.
As to `COC(=O)c1nc(-c2ccc(Cl)c(OC)c2F)nc(N)c1OC` [Compound 1, 6-amino-2-(4-chloro-2-fluoro-3-methoxyphenyl)-5-methoxypyrimidine-4-carboxylic acid methyl ester], the pest or weed control at 140 g/ha in series [1] came out at 100%; in series [2], 100%; in series [3], 95%; in series [4], 100%.
On to `CCOC(=O)c1nc(-c2ccc(Cl)cc2)nc(N)c1OC` [Compound 2, 6-Amino-2-(4-chlorophenyl)-5-methoxypyrimidine-4-carboxylic acid ethyl ester], for which the pest or weed control at 140 g/ha in series [1] worked out at 100%; in series [2], 50%; in series [3] it was 70%; in series [4], 98%.
In the same order, the values of `COc1c(N)nc(-c2ccc(Cl)c(OC)c2F)nc1C(=O)O` [Compound 22, 6-Amino-2-(4-chloro-2-fluoro-3-methoxyphenyl)-5-methoxypyrimidine-4-carboxylic acid] are 100%, 100%, 100% and 100%.
In the same order, the values of `CCOC(=O)c1nc(-c2ccc(Cl)cc2F)nc(N)c1OC` [Compound 13, 6-Amino-2-(4-chloro-2-fluorophenyl)-5-methoxypyrimidine-4-carboxylic acid ethyl ester] are 100%, 0%, 35% and 100%.
As for `COC(=O)c1nc(-c2ccc(Cl)c(OC)c2F)nc(N)c1SC` [Compound 19, 6-Amino-2-(4-chloro-2-fluoro-3-methoxyphenyl)-5-methylsulfanylpyrimidine-4-carboxylic acid methyl ester], the pest or weed control at 195 g/ha in series [1] (195 g ai/ha) turned out to be 100%; in series [2] (195 g ai/ha), 90%; in series [3] (195 g ai/ha) it was 85%; in series [4] (195 g ai/ha), 90%.
As for `CCOC(=O)c1nc(-c2ccc(C(F)(F)F)cc2)nc(N)c1OC` [Compound 11, 6-Amino-5-methoxy-2-(4-trifluoromethylphenyl)pyrimidine-4-carboxylic acid ethyl ester], the pest or weed control at 140 g/ha stood at 85% in series [1], 85% in series [2], 0% in series [3] and 90% in series [4].
For the molecule `CCOC(=O)c1nc(-c2ccc(Cl)c(F)c2)nc(N)c1OC` [Compound 9, 6-Amino-2-(4-chloro-3-fluorophenyl)-5-methoxypyrimidine-4-carboxylic acid ethyl ester], the pest or weed control at 140 g/ha in series [1] is 100%; in series [2], 90%; in series [3], 30%; in series [4] it was 95%.
For `CCOC(=O)c1nc(-c2ccc(Cl)c(C(C)F)c2F)nc(N)c1OC` (stereo not shown) [Compound 14, 6-Amino-2-[4-chloro-2-fluoro-3-(1-fluoroethyl)phenyl]-5-methoxypyrimidine-4-carboxylic acid ethyl ester] the same measures were 100%, 100%, 100% and 100%.
In the same order, the values of `COc1c(N)nc(-c2ccc(C)cc2)nc1C(=O)O` [Compound 32, 6-Amino-5-methoxy-2-p-tolylpyrimidine-4-carboxylic acid] are 100%, 95%, 65% and 80%.
`CCOc1c(N)nc(-c2ccc(Cl)c(OC)c2F)nc1C(=O)O` [Compound 18, 6-Amino-2-(4-chloro-2-fluoro-3-methoxyphenyl)-5-ethoxy-pyrimidine-4-carboxylic acid]: the pest or weed control at 280 g/ha in series [1] was determined as 100%; in series [3] it was 70%; in series [4] it was 70%.
As to `CCOC(=O)c1nc(-c2ccc(C)cc2F)nc(N)c1OC` [Compound 10, 6-Amino-2-(2-fluoro-4-methylphenyl)-5-methoxypyrimidine-4-carboxylic acid ethyl ester], the pest or weed control at 140 g/ha was found to be 90% in series [1], 10% in series [2], 0% in series [3] and 100% in series [4].
On to `COc1c(Cl)ccc(-c2nc(N)c(SC)c(C(=O)O)n2)c1F` [Compound 21, 6-Amino-2-(4-chloro-2-fluoro-3-methoxyphenyl)-5-methylsulfanyl-pyrimidine-4-carboxylic acid], for which the pest or weed control at 140 g/ha in series [1] worked out at 100%; in series [2] it was 100%; in series [3], 60%; in series [4], 85%.
For `CCOC(=O)c1nc(-c2cc(OC)c(Cl)cc2F)nc(N)c1OC` [Compound 16, 6-Amino-2-(4-chloro-2-fluoro-5-methoxyphenyl)-5-methoxypyrimidine-4-carboxylic acid ethyl ester], the pest or weed control at 140 g/ha in series [1] was 100%; in series [2], 0%; in series [3], 10%; in series [4], 60%.

As a reminder, the melting point is the temperature, or range, at which the solid turns liquid.
